Test [1] concerns Fischer F344 female rats, spinal cord contusion injury. In words: Spinal cord contusion injury, injection of bone marrow cells from treated donors into the cavity. The class given is in vivo, rat. The following applies: recipients of bone marrow cells from donors given 100 mg/kg orally. From the text: (§1) In some embodiments of the invention, cells, preferably bone marrow cells, can be transferred from a first animal treated according to methods of the invention to a site of chronic spinal cord injury in the first animal or in a second animal.
Fischer F344 female rats (Taconic, Germantown N.Y.) weighing 175-200 g were subjected to 25 mm weight drop contusion injury as previously described (Gruner J A, J. Neurotrauma, 1992 Summer; 9(2):123-8) with slight modifications. Briefly, under isoflurane anethesia, a laminectomy exposing the T8-9 spinal cord segment was performed and a rod weighing 10 g was dropped on the exposed cord from 25 mm height. The rod diameter at its end (where cord-rod interaction takes place) is 2.8 mm. A total of 12 rats were injured. Four animals were used as donor animals, eight as recipients. Two donor animals were administered N-[4-[(4-fluorophenyl)sulfonyl]phenyl]acetamide at a dose of 100 mg/kg orally, and two other animals were treated with vehicle (cyclodextrin, 45% in distilled sterile water). […]
Doseage levels of with N-[4-[(4-fluorophenyl)sulfonyl]phenyl]acetamide was 100 mg/kg at 20 mg/ml. No difference in cavity size was detected comparing saline treated animals and animals treated with bone marrow cells from vehicle treated donors. […]

Test [2] has as its system bone marrow cells. In words: Nestin expression in bone marrow cells after systemic administration. The format is in vivo, rat. The following applies: bone marrow harvested 3-7 days after systemic administration; vs non-treated rats.
Description: as §1

Test [3] concerns cortical neurons on aged astrocytes. Briefly: Growth of cortical neurons on aged astrocytes, count of tubulin-positive neurons. The format is cell-based, Sprague Dawley rat. The following applies: 1 week after treatment; for Number of Neurons, Well 2 / Number of Neurons, Well 4: control 74; for Number of Neurons, Well 3: control 89; for Number of Neurons, mean: control 82.50. As for the experimental part:
Astrocytes: postnatal day 2 (P2) Sprague Dawley rat cortices were aseptically dissected and trypsinized for 20 min at 37° C. in 0.25% trypsin-EDTA (GIBCO) and DNAse (0.2 mg/ml, Worthington). Enzyme action was stopped by the addition of soybean trypsin inhibitor (SIGMA)) and DNAse. Tissue was dissociated into single cell suspension by trituration with a 5 ml pipette, filtered though a 40 μm nylon filter and centrifuged at 500×g for 3 minutes. The pellet was taken up in medium (DMEM/10% fetal bovine serum) and cells were plated into poly-D-lysine (10 μg/ml, SIGMA) T75 flasks (one flask/cortex). After 23 days, astrocytes were trypsinized and replated at a density of 500,000 cells per well into poly-D-lysine-coated 24 well plates. Cultures were grown for an additional 20 days in order to let astrocytes mature. This maturation is known to make the astrocytes less permissive for neurite outgrowth (see G. M. Smith, et al., Developmental Biology, 138, 377-390 (1990), and G. M. Smith and J. Silver, Progress in Brain Research, Vol. 78, Chapt. 46, D. M. Cash and J. R. Sladek, ed., Elsevier, 1988.
Cortical neurons: mixed cortical cells were dissociated from embryonic day 18 Sprague Dawley rat embryos as described for astrocytes. In order to obtain more pure neuonal cultures, cells were subjected to a differential adhesion by pre-plating them on a non-coated bacterial dish (100 mm diameter) for 1 hour. Non-neuronal cells stick to this plate while neurons stay in the supernatant. Neurons were added to the aged astrocytes at a density of 10,000 cells/well in DEME/10% fetal bovine serum. One day later, the cultures were treated with 1 μg/ml and 10 μg/ml of N-4[4-[(4-fluorophenyl)sulfonyl]phenyl]acetamide. 1 week after treatment, cultures were fixed and immunostained with monoclonal anti-tubulin antibody (SIGMA, 1:800 diluted), followed by rhodamine-conjugated goat-anti-mouse secondary (1:100 dilution). Tubulin labels axons and dentrites.
Analysis: Tubulin-positive cell bodies with a process at least two cell diameters long were counted in 5 visual fields under 10× magnification with a Nikon Eclipse 2000 inverted microscope. Results were expressed as means of quadruplicate wells+/−SEM and are shown in Table I. Any patent application to which this application claims priority is incorporated by reference herein in its entirety.

Each structure is given as a SMILES string. “Also recorded” adds a separate entry of the source.

Take `CC(=O)Nc1ccc(S(=O)(=O)c2ccc(F)cc2)cc1` [N-[4-[(4-fluorophenyl)sulfonyl]phenyl]acetamide]: the “cavity size at the injury site” value in test [1] (four weeks after cell injection, vs saline treated animals) is on record as “decrease in cavity size at the injury site (approximately half the size)”. In addition, in test [1] (vs saline or vehicle treated donors, 100 mg/kg), the “Nestin immunoreactive cells at the edge of the injury cavity” value is listed as “Nestin immunoreactive cells are observed at the edge of the injury cavity; also recorded: significant increase in cells immunoreactive to nestin”. The “expression of Nestin in bone marrow cells” value in test [2] is listed as “increased expression of Nestin”. Further, in test [3] (1 μg/ml), the “Number of Neurons, Well 2” value is given as 103; the “Number of Neurons, Well 4” value came out at 176; the “Number of Neurons, Well 3” value was determined as 171. Moreover, in test [3] (1 μg/ml, control 93), the “Number of Neurons, Well 1” value was found to be 132. Moreover, the “Number of Neurons, mean” value in test [3] (1 μg/ml, mean of quadruplicate wells) is 145.50. In test [3] (10 μg/ml), the “Number of Neurons, Well 2” value was determined as 129; the “Number of Neurons, Well 4” value amounted to 133; the “Number of Neurons, Well 3” value stood at 173. In addition, in test [3] (10 μg/ml, mean of wells), the “Number of Neurons, mean” value was 145.00.

The values above are taken from patent US7271187B2, “Compositions and methods for promoting tissue regeneration” (priority 2000, dated 2007).
